The test system of assay [1] is mouse pancreatic cancer Pan02 subcutaneous homograft tumor. In words: In vivo pharmacodynamic study, Pan02 subcutaneous homograft tumor model, combination with PD-L1 antibody. Conditions: Pan02 tumor-bearing C57BL/6 mice; Compound 1 7.5 mg/kg oral Qd; PD-L1 antibody 10 mg/kg IP Q3d; 25 days. The protocol: Example 9: In Vivo Pharmacodynamic Study of the Compound of the Present Invention Combined with PD-L1 on Mouse Pancreatic Cancer Pan02 Subcutaneous Homograft Tumor Model
Pan02 cells: mouse pancreatic cancer cells from ATCC.
(§1) C57BL/6 mice, 6- to 8-week-old, female, from Shanghai Slac Laboratory Animal Co., Ltd.
PD-L1 antibody: InVivoMAb anti-mouse PD-L1 (B7-H1), clone number: 10F.9G2 (IgG2b), company: BioXcell, Cat. No. BE0101
Pan02 cells were cultured in monolayer in vitro. When the cells were in the exponential growth phase, the cells were harvested, counted, and inoculated.
0.06 mL of a cell suspension containing about 1×10^6 Pan02 cells was inoculated subcutaneously into the back skin of female C57BL/6 mice. The mice were grouped for administration when the average volume of tumors reached approximately 60 mm^3. Grouping method: Animals were weighed before administration and tumor volumes were measured. Grouping was designed in blocks according to the tumor volume, with 7 mice per group.
Administration was carried out as in Table 8 below.
(§2) Animals were monitored daily for health status and mortality, body weight and tumor volume were measured twice a week, and samples were collected after the last administration. The therapeutic effect of tumor volume was evaluated by TGI %, and the evaluation was conducted as shown in Example 5.

The subject of assay [2] is mouse colon cancer MC38 subcutaneous homograft tumor. In words: In vivo pharmacodynamic study, MC38 subcutaneous homograft tumor model, combination with PD-L1 antibody. The settings on record: MC38 tumor-bearing C57BL/6 mice; Compound 1 7.5 mg/kg oral Qd; PD-L1 antibody 5 mg/kg IP Q3d; 25 days. The protocol:
Example 8: In Vivo Pharmacodynamic Study of the Compound of the Present Invention Combined with PD-L1 on Mouse Colon Cancer MC38 Subcutaneous Homograft Tumor Model
MC38 cells: mouse colon cancer cells from ATCC.
as §1
(§3) PD-L1 antibody: InVivoMAb anti-mouse PD-L1 (B7-H1), clone number: 10F.9G2 (IgG2b), company: BioXcell, Cat. No. BE0101.
MC38 cells were cultured in monolayer in vitro. When the cells were in the exponential growth phase, the cells were harvested, counted, and inoculated.
0.04 mL of a cell suspension containing about 3×10^5 MC38 cells was inoculated subcutaneously into the back skin of female C57BL/6 mice. The mice were grouped for administration when the average volume of tumors reached approximately 60 mm^3. Grouping method: Animals were weighed before administration and tumor volumes were measured. Grouping was designed in blocks according to the tumor volume, with 8 mice per group.
Administration was carried out as in Table 6 below.
as §2

Assay [3] deals with IDO-1 expression in Hela cells. In words: Regulation of IDO protein levels in Hela cells (western blot). The format is cell-based. Conditions: interferon 50 ng/mL, co-incubation 16 h, 10-10000 nM, FIG. 2. The source says:
Example 6: Study on Regulation of IDO Protein Levels in Hela Cells by the Compound of the Present Invention
Cells: Hela Cells from Cobioer.
Reagents: DMEM medium, fetal bovine serum, penicillin, streptomycin, […] from SinoBiological, protein loading buffer, RIPA protein lysis buffer, protease inhibitor, BCA protein content assay kit, trihydroxymethyl aminomethane, sodium dodecyl sulfate, ammonium persulfate, 30% Acry-Bis solution, phosphate buffer, Tween 20, bovine serum albumin, GAPDH antibody (rabbit) from CST company, IDO-1 antibody (rabbit) from CST, anti-rabbit secondary antibody from CST, and protein marker.
Cell culture and plating: Hela cells were cultured in a DMEM medium containing 10% fetal bovine serum and 1% penicillin-streptomycin double antibody and incubated in a water-jacketed incubator at 37° C. and 5% CO2. Subculture treatment was carried out in a 1:4 ratio. When the cells were in the exponential growth phase, the cells were harvested, counted, plated at a density of 5×10^5 cells/well in a 6-well cell culture plate, and cultured overnight. […]
Protein content assay and sample configuration: Protein content in each well was measured by using a BCA kit and Nanodrop, and according to the detection result, a sample loading buffer and a lysis buffer were added to adjust to a system of […] of protein/10 μL for sample loading of Western Blot detection. […]
For orientation: In western blotting, separated proteins are transferred to a membrane and probed.

In assay [4] the test system is mouse colon cancer cell CT26.wt subcutaneous homograft tumor. In words: In vivo pharmacodynamic study, CT26.wt subcutaneous homograft tumor model, combination with PD-1 antibody. The settings on record: CT26.wt tumor-bearing Balb/c mice, day 13; Compound 1 15 mg/kg PO QD; PD-1 antibody 10 mg/kg IP BIW; 1-14 days. From the text: Example 5: In Vivo Pharmacodynamic Study of the Compound of the Present Invention Combined with PD-1 Antibody on Mouse Colon Cancer Cell CT26.Wt Subcutaneous Homograft Tumor Model
Test sample: compound 1 of the present invention, having a structure shown above.
CT26.wt cells: mouse colon cancer cells from the Cell Bank of the Chinese Academy of Sciences.
Balb/c mice, 6- to 8-week-old, female, from Beijing Vital River Laboratory Animal Technology Co., Ltd.
PD-1 antibody: InVivoMAb anti-mouse PD-1, clone number: RMP1-14, company: BioXcell, Cat. No. BE0146.
CT26.wt cells were cultured in monolayer in vitro under the condition of an RPMI1640 medium supplemented with 10% heat-inactivated fetal bovine serum and 1% penicillin-streptomycin double antibody, and the culture was carried out at 37° C. and 5% CO2. […] When the cells were in the exponential growth phase, the cells were harvested, counted, and inoculated.
0.1 mL of a cell suspension containing about 1×10^6 CT26.wt cells (cells suspended in serum-free basal RPMI1640 medium) was inoculated subcutaneously into the left back skin of female Balb/c mice. […] Grouping method: Animals were weighed before administration and tumor volumes were measured. […]
Animals were monitored daily for health status and mortality, body weight and tumor volume were measured twice a week, and samples were collected after the last administration. […]

Assay [5] concerns mouse B cell lymphoma A20 subcutaneous homograft tumor. In words: In vivo pharmacodynamic study, A20 subcutaneous homograft tumor model, combination with PD-L1 antibody. Conditions: A20 tumor-bearing Balb/c mice; Compound 1 7.5 mg/kg oral Qd; PD-L1 antibody 10 mg/kg IP Q3d; 19 days. The protocol:
Example 7: In Vivo Pharmacodynamic Study of the Compound of the Present Invention Combined with PD-L1 on Mouse B Cell Lymphoma A20 Subcutaneous Homograft Tumor Model
A20 cells: mouse B cell lymphoma cells from ATCC.
Balb/c mice, 6- to 8-week-old, female, from Zhejiang Vital River Laboratory Animal Technology Co., Ltd.
as §3
A20 cells were cultured in monolayer in vitro. When the cells were in the exponential growth phase, the cells were harvested, counted, and inoculated.
0.04 mL of a cell suspension containing about 6×10^5 A20 cells was inoculated subcutaneously into the back skin of female Balb/c mice. The mice were grouped for administration when the average volume of tumors reached approximately 60 mm^3. Grouping method: Animals were weighed before administration and tumor volumes were measured. Grouping was designed in blocks according to the tumor volume, with 8 mice per group.
Administration was carried out as in Table 4 below.
as §2

The next assay deals with endometrial cancer. Conditions: PD-1 antibody combined with E7080, endometrial cancer, ASCO 2017 clinical data; cited from earlier work.

A word on the TGI: it is how far tumour growth fell short of that in controls.

As to `Cc1[nH]nc2c1N=C(c1ccccc1Cl)c1cnc(N3CCOCC3)cc1N2` [Compound 1, 4-(5-(2-chlorophenyl)-3-methyl-2,10-dihydropyrazolo[4,3-b]pyrido[4,3-e][1,4]diazepin-8-yl)morpholine], the TGI amounted to 71% in assay [1], 50% in assay [2] and 26% in assay [5]. Also, the Tumor volume in assay [1] was found to be 921 mm^3; in assay [2], 554 mm^3; in assay [4], 1150 ± 142 mm^3; in assay [5], 519 mm^3. The “Expression of IDO-1 in Hela cells” value in assay [3] was “could effectively reduce the expression of IDO-1”. Moreover, the “TGI (tumor volume inhibition rate)” value in assay [4] came out at 48%.

For `COc1cc2nccc(Oc3ccc(NC(=O)NC4CC4)c(Cl)c3)c2cc1C(N)=O` [Compound E7080], the Control rate in the assay on endometrial cancer is 96%.

The record behind these values is patent US20250082650A1, “COMBINED USE OF MULTIKINASE INHIBITOR” (TRANSTHERA SCIENCES (NANJING), INC., priority 2021, published 2025).
